The source of these data is patent US8309685B2 (Celgene Avilomics Research, Inc., priority 2007, dated 2012).

Assay [1] deals with HCV RNA replicon in cell line ET (luc-ubi-neo/ET), human Huh7 hepatoma. The experiment in a line: Method A: HCV RNA replicon antiviral assay (luciferase, ET cell line). The assay is classed as cell-based, Hepatitis C virus. To be noted: Hepatitis C virus, Huh-7, assay described in Example 22. In a few lines: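 ET replicon cells (Huh7 carrying luciferase-reporter HCV replicon) plated at 5×10^3 cells/well and exposed 72 hr to six 3-fold drug concentrations in DMEM/5% FBS. Replicon luciferase gave EC50/EC90; CytoTox-1 cell counts gave IC50 (viability); […]. Interferon alpha-2b served as positive control.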
In general terms: Replicon systems follow genome replication, usually without infectious particles.

Assay [2] deals with T1, wild type HCV NS3/4A 1b protease enzyme (Hepatitis C virus genotype 1b, UniProt P26663).
T1 construct: 10× stocks of NS3/4A protease enzyme from Bioenza (Mountain View, Calif.); purchased Bioenza (Mountain View, Calif.)
The experiment in a line: HCV Protease FRET Assay (IC50_APP), wild type. The assay is classed as biochemical.

Assay [3] concerns the target T2, A156T mutant of the HCV NS3/4A 1b protease enzyme (Hepatitis C virus genotype 1b, UniProt P26663, A1182T).
T2 construct: 10× stocks of NS3/4A protease enzyme from Bioenza (Mountain View, Calif.); purchased Bioenza (Mountain View, Calif.)
The experiment in a line: HCV Protease FRET Assay (IC50_APP), A156T mutant. Type of assay: biochemical. The conditions noted are these: apparent IC50, A156T mutant; read-out: IC50_APP, HCV A156T.

Assay [4] concerns the target T3, D168A mutant of the HCV NS3/4A 1b protease enzyme (Hepatitis C virus genotype 1b, UniProt P26663, D1194A).
T3 construct: 10× stocks of NS3/4A protease enzyme from Bioenza (Mountain View, Calif.); purchased Bioenza (Mountain View, Calif.)
The experiment in a line: HCV Protease FRET Assay (IC50_APP), D168A mutant. The assay is classed as biochemical. The conditions noted are these: apparent IC50, D168A mutant; read-out: IC50_APP, HCV D168A.

Assay [5] deals with T4, NS3 protease self-cleavage in Huh-7-Luc-Neo-ET wild-type replicon cells (Hepatitis C virus genotype 1b, UniProt Q9WMX2, E1202G/T1280I).
T4 construct: host or cells: Huh-7-Luc-Neo-ET (human Huh7 hepatoma cells carrying the replicon)
The assay is described as follows: Inhibition of protease self cleavage after compound removal, wild-type replicon cells. The assay is classed as cell-based. To be noted: up to 24 hours after compound removal. The procedure:
Inhibition of Protease Self Cleavage
Huh-7-Luc-Neo-ET cells were plated in Replicon Assay Medium (RPMI supplemented with 5% FBS, 1× non-essential amino acids and pen/strep) at a density of 1×10^5 cells/well in 12 well plates. Eight hours later the media was removed and replaced with 1 ml media containing test compound (5 wells per compound) and 0.02% DMSO and the cells were returned to the incubator overnight. Sixteen hours later 1 well from each compound and 1 untreated well were washed with PBS, then lysed and scraped into 30 ul of Cell Extraction Buffer (Biosource, Camarillo, Calif.) plus Complete Protease Inhibitor (Roche, Indianapolis, Ind.). The remaining wells were rinsed 2× with PBS then fed with Replicon Media and returned to the incubator. […]
Cell lysates were separated by SDS-Page (4-20%) and transferred to Immobilon-P PVDF membrane (Millipore Corporation, Mass.) and blotted with polyclonal anti NS3 antibody (Bioenza, Calif.). Blots were scanned on an Odyssey infrared scanner from Licor and the FL band and cleavage products were quantified separately using the Licor software provided with the scanner. The cleavage product was calculated as a percentage of the total NS3 in each sample and then normalized to the DMSO control so that the DMSO control reflects 100% activity.

The target of assay [6] is T5, NS3 protease with R155K mutation in modified replicon system (Hepatitis C virus genotype 1b, UniProt Q9WMX2, E1202G/R1181K/T1280I).
T5 construct: modified replicon system where the NS3 protease contains a clinically observed mutation; expressed in transfected cells; host or cells: Huh7-Lunet cells transfected with in vitro transcribed replicon RNA
The assay is described as follows: Inhibition of protease self cleavage after compound removal, R155K replicon system. Type of assay: cell-based. As to the method:
Constructs containing clinically relevant mutations were generated by performing site-directed mutagenesis on the pFK-I389-luc-ubi-neo-NS3-3′ET plasmid (ReBLikon Gmbh (Heidelberg, Germany)). using the QuickChange II Site-Directed Mutagenesis Kit (Stratagene, La Jolla, Calif.) according to manufacturer's directions and with the primers described in Table 7, below.
Huh-7-Luc-Neo-ET cells were plated in Replicon Assay Medium (RPMI supplemented with 5% FBS, 1× non-essential amino acids and pen/strep) at a density of 1×10^5 cells/well in 12 well plates. Eight hours later the media was removed and replaced with 1 ml media containing test compound (5 wells per compound) and 0.02% DMSO and the cells were returned to the incubator overnight. […]
Cell lysates were separated by SDS-Page (4-20%) and transferred to Immobilon-P PVDF membrane (Millipore Corporation, Mass.) and blotted with polyclonal anti NS3 antibody (Bioenza, Calif.). Blots were scanned on an Odyssey infrared scanner from Licor and the FL band and cleavage products were quantified separately using the Licor software provided with the scanner. The cleavage product was calculated as a percentage of the total NS3 in each sample and then normalized to the DMSO control so that the DMSO control reflects 100% activity. […]

Assay [7] concerns the target T6, C159S mutant of the HCV NS3/4A 1b protease enzyme (Hepatitis C virus genotype 1b, UniProt P26663, C1185S).
T6 construct: 10× stocks of NS3/4A protease enzyme from Bioenza (Mountain View, Calif.); purchased Bioenza (Mountain View, Calif.)
The assay is described as follows: HCV Protease FRET Assay (IC50_APP), C159S mutant. Type of assay: biochemical. To be noted: apparent IC50, C159S mutant. The procedure:
HCV Protease FRET Assay for WT and Mutated NS3/4A 1b Enzymes (IC50—APP).
The following protocol was used to generate “apparent” IC50 (IC50—APP) values as depicted in Table 6, below. […] 5 μL of each enzyme were added to Corning (#3575) 384-well, black, microtiter plates (Corning, N.Y.) after spotting a 0.5 μL volume of 50% DMSO and serially diluted compounds prepared in 50% DMSO. Protease reactions were immediately started after enzyme addition with the addition of 45 μL of the FRET substrate and monitored for 60-90 minutes at λex485/λem520 in a Synergy^4 plate reader from BioTek (Winooski, Vt.). At the conclusion of each assay, progress curves from each well were examined for linear reaction kinetics and fit statistics (R^2, 95% confidence intervals, absolute sum of squares).
The compound numbers correspond to the compound numbers in Table 3. […] ;

Assay [8] deals with T7, R155K mutant of the HCV NS3/4A 1b protease enzyme (Hepatitis C virus genotype 1b, UniProt P26663, R1181K).
T7 construct: 10× stocks of NS3/4A protease enzyme from Bioenza (Mountain View, Calif.); purchased Bioenza (Mountain View, Calif.)
The experiment in a line: HCV Protease FRET Assay (IC50_APP), R155K mutant. The assay is classed as biochemical. The conditions noted are these: apparent IC50, R155K mutant; read-out: IC50_APP, HCV R155K.

Assay [9] deals with T8, HCV NS3/4A wild type (genotype 1b) (Hepatitis C virus genotype 1b, UniProt P26663).
T8 construct: mass spectroscopic analysis of HCV NS3/4A wild-type protease domain; purchased Bioenza Calif
The assay is described as follows: Mass spectrometric analysis (MALDI-TOF) of covalent modification, HCV wild type. The conditions noted are these: 10-fold excess of compound to protein, 3 hrs. The assay is classed as binding. As to the method: Mass spectrometric analysis of HCV wild type or HCV variant C159S in the presence of test compound was performed. 100 pmols of HCV wild type (Bioenza Calif.) was incubated with compound for 1 hr and 3 hrs at 10-fold access of […] to protein. 1 ul aliquots of the samples (total volume of 4.24 ul) were diluted with 10 ul of 0.1% TFA prior to micro C4 ZipTipping directly onto the MALDI target using Sinapinic acid as the desorption matrix (10 mg/ml in 01% TFA:Acetonitrile 50:50). Analyses were performed on a Shimadzu Biotech Axima TOF^2 (Shimadzu Instruments) matrix-assisted-laser desorption/ionization Time-of-Flight (MALDI-TOF) mass spectrometer. The same procedure was carried out on 100 pmols of HCV C159S mutant of HCV protease for 3 hrs at 10-fold excess of (I-3) to protein.
As depicted in FIGS. 2, 3, 4, and 5, mass spectrometric analysis of HCV wild type or HCV mutants in the presence of test compound (I-3) was performed. […] 1 ul aliquots of the samples were diluted with 10 ul of 0.1% TFA prior to micro C4 ZipTipping directly onto the MALDI target using Sinapinic acid as the desorption matrix (10 mg/ml in 0.1% TFA:Acetonitrile 50:50).
(§1) Mass spectrometric analysis of HCV wild type (genotype 1b) in the presence of test compounds I-73 and I-75 was performed using the following protocol: HCV NS3/4A wild type (wt) was incubated for 1 hr at a 10× fold access of test compound to protein. 2 ul aliquots of the samples were diluted with 10 ul of 0.1% TFA prior to micro C4 ZipTipping directly onto the MALDI target using Sinapinic acid as the desorption matrix (10 mg/ml in 0.1% TFA:Acetonitrile 50:50). For intact protein mass measurement the instrument was set in Linear mode using a pulsed extraction setting of 24,500 and apomyoglobin as the standard to calibrate the instrument.
Mass spectrometric analysis of HCV NS3/4A genotypes 1a, 1b, 2a, and 3a in the presence of test compound I-96 was performed using the following protocol: HCV NS3/4A was incubated for 3 hr at a 10× fold access of test compound to protein. […]

A further assay addresses T9, HCV NS3/4A genotype 1a (Hepatitis C virus genotype 1a, UniProt P27958).
T9 construct: Mass spectrometric analysis of HCV NS3/4A genotypes 1a, 1b, 2a, and 3a
The assay is described as follows: Mass spectrometric analysis of covalent modification, genotype 1a. Type of assay: binding. The conditions noted are these: 10× excess of compound, 3 hr. As to the method: as §1, with “HCV NS3/4A genotypes 1a, 1b, 2a, and 3a” for “HCV wild type (genotype 1b)”, “test compound I-96” for “test compounds I-73 and I-75”, “NS3/4A” for “NS3/4A wild type (wt)”, “for 3” for “for 1”, “in 01%” for “in 0.1%”

The target of the next assay is T10, HCV NS3/4A genotype 2a (Hepatitis C virus genotype 2a, UniProt P26660).
T10 construct: Mass spectrometric analysis of HCV NS3/4A genotypes 1a, 1b, 2a, and 3a
The experiment in a line: Mass spectrometric analysis of covalent modification, genotype 2a. The assay is classed as binding. To be noted: 10× excess of compound, 3 hr. The procedure: as §1, with “HCV NS3/4A genotypes 1a, 1b, 2a, and 3a” for “HCV wild type (genotype 1b)”, “test compound I-96” for “test compounds I-73 and I-75”, “NS3/4A” for “NS3/4A wild type (wt)”, “for 3” for “for 1”, “in 01%” for “in 0.1%”

The next assay has as its target T11, HCV NS3/4A genotype 3a (Hepatitis C virus genotype 3a, UniProt Q81258).
T11 construct: Mass spectrometric analysis of HCV NS3/4A genotypes 1a, 1b, 2a, and 3a
The experiment in a line: Mass spectrometric analysis of covalent modification, genotype 3a. The assay is classed as binding. The conditions noted are these: 10× excess of compound, 3 hr. As to the method:
as §1, with “HCV NS3/4A genotypes 1a, 1b, 2a, and 3a” for “HCV wild type (genotype 1b)”, “test compound I-96” for “test compounds I-73 and I-75”, “NS3/4A” for “NS3/4A wild type (wt)”, “for 3” for “for 1”, “in 01%” for “in 0.1%”

Assay [10] relates to HCV RNA replicon in cell line ET (luc-ubi-neo/ET), human Huh7 hepatoma. The experiment in a line: Luciferase Assay (Example 35), replicon-derived luciferase activity. The assay is classed as cell-based. The conditions noted are these: Hepatitis C virus, Huh-7, assay described in Example 35. In a few lines:
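Huh7-derived ET cells carrying a luciferase-reporter HCV replicon, 5×10^3 cells/well, exposed 72 h to six 3-fold compound concentrations in DMEM with 5% FBS. Replicon luciferase gives EC50/EC90; Cell Titer Blue cell number gives cytotoxic IC50, with SI50 as their ratio. Interferon alpha-2b served as positive control.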

Usually IC90 stands for the concentration needed for an effect of 90%. Higher therefore signals weaker potency. Compound `C=CC(=O)N[C@H](C)C(=O)N1C[C@H](Oc2cc(-c3ccccc3)nc3cc(OC)ccc23)C[C@H]1C(=O)N[C@]1(C(=O)NS(=O)(=O)C2CC2)C[C@H]1C=C` [Compound I-54, (2S,4R)-1-((R)-2-acrylamidopropanoyl)-N-((1R,2S)-1-(cyclopropylsulfonylcarbamoyl)-2-vinylcyclopropyl)-4-(7-methoxy-2-phenylquinolin-4-yloxy)pyrrolidine-2-carboxamide] displayed a 90% effect concentration (IC90) in assay [1] (IC90) of less than 0.01 µM. Also, the IC50 was less than 0.01 µM in assay [1] (read-out: Replicon (IC50)), less than 0.01 µM in assay [2], 0.01 to 0.1 µM in [3] and 0.01 to 0.1 µM in assay [4]. Moreover, the “Inhibition of NS3 protease activity (self-cleavage) after compound removal” value in assay [5] is recorded as “virtually complete inhibition”. Besides, in [6], the “Duration of inhibition of mutant protease activity after compound removal” value is “at least 24 hours”.
The term EC90 denotes the concentration needed for an effect of 90%. The term EC50 denotes the concentration at which the effect is half-maximal. Low readings indicate a more potent agent, high ones a less potent agent. Take `C=C[C@@H]1C[C@]1(NC(=O)[C@@H]1C[C@@H](Oc2nccc3cc(OC)ccc23)CN1C(=O)[C@H](CCC(=O)C=C(C)C)NC(=O)OC(C)(C)C)C(=O)NS(=O)(=O)C1CC1` [Compound I-96, {1-[2-(1-Cyclopropanesulfonylaminocarbonyl-2-vinyl-cyclopropylcarbamoyl)-4-(6-methoxy-isoquinolin-1-yloxy)-pyrrolidine-1-carbonyl]-6-methyl-4-oxo-hept-5-enyl}-carbamic acid tert-butyl ester]: the IC50 is less than 0.01 µM in assay [2]; less than 0.01 µM in assay [7]; 0.01 to 0.1 µM in [3]; 0.1 to 1 µM in assay [4]; 0.01 to 0.1 µM in assay [8]. Also, the “Covalent modification of HCV wild type by mass spectrometry” value in assay [9] is on record as “measurable covalent modification”. For the same compound, the “Covalent modification of HCV NS3/4A genotype 1a by mass spectrometry” value on HCV NS3/4A genotype 1a is reported as “measurable covalent modification”. Also, the “Covalent modification of HCV NS3/4A genotype 2a by mass spectrometry” value on HCV NS3/4A genotype 2a is reported as “measurable covalent modification”. The “Covalent modification of HCV NS3/4A genotype 3a by mass spectrometry” value on HCV NS3/4A genotype 3a was “measurable covalent modification”. Further, in assay [10] (EC90), the 90% effect concentration (EC90) was in the range of 0.01 to 0.1 µM. In assay [10], this compound came in with an EC50 of less than 0.01 µM.
